#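 Five concentrations, 48 hours, 96-well plates. GI50 is the concentration that inhibits growth by half.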 The source made the active and inactive calls. Rule as the data show it: active = GI50 up to about 1.1 µM and inactive = higher.
# Experiments:
# Assay in all cases: inhibition of tumour cell growth, NCI panel, 48 h
# [1] = tested on: 786-0
# [2] = tested on: A498
# [3] = tested on: A549
# [4] = tested on: ACHN
# [5] = tested on: BT-549
# [6] = tested on: CAKI-1
# [7] = tested on: CCRF-CEM
# [8] = tested on: COLO 205
# [9] = tested on: DU-145
# [10] = tested on: EKVX
# [11] = tested on: HCC 2998
# [12] = tested on: HCT-116
# [13] = tested on: HCT-15
# [14] = tested on: HL-60
# [15] = tested on: HOP-62
# [16] = tested on: HOP-92
# [17] = tested on: HT-29
# [18] = tested on: Hs-578T
# [19] = tested on: IGROV-1
# [20] = tested on: K562
# [21] = tested on: KM12
# [22] = tested on: LOX IMVI
# [23] = tested on: M14
# [24] = tested on: MCF7
# [25] = tested on: MDA-MB-231
# [26] = tested on: MDA-MB-435
# [27] = tested on: MDA-N
# [28] = tested on: MOLT-4
# [29] = tested on: Malme-3M
# [30] = tested on: NCI-H226
# [31] = tested on: NCI-H23
# [32] = tested on: NCI-H460
# [33] = tested on: NCI-H522
# [34] = tested on: NCI/ADR-RES
# [35] = tested on: OVCAR-3
# [36] = tested on: OVCAR-4
# [37] = tested on: OVCAR-5
# [38] = tested on: OVCAR-8
# [39] = tested on: PC-3
# [40] = tested on: RPMI-8226
# [41] = tested on: RXF 393
# [42] = tested on: SF-268
# [43] = tested on: SF-295
# [44] = tested on: SF-539
# [45] = tested on: SK-MEL-28
# [46] = tested on: SK-MEL-2
# [47] = tested on: SK-MEL-5
# [48] = tested on: SK-OV-3
# [49] = tested on: SN12C
# [50] = tested on: SNB-19
# [51] = tested on: SNB-75
# [52] = tested on: SW-620
# [53] = tested on: T47D
# [54] = tested on: TK-10
# [55] = tested on: U-251
# [56] = tested on: UACC-257
# [57] = tested on: UACC-62
# [58] = tested on: UO-31
smiles,measurement,setting,value
CC/C(Cl)=N\OC(=O)Nc1ccccc1OC(F)(F)F,GI50,[1],10.1 µM (inactive)
same,GI50,[2],19.6 µM (inactive)
same,GI50,[3],22.6 µM (inactive)
same,GI50,[4],1.91 µM (inactive)
same,GI50,[5],3.11 µM (inactive)
same,GI50,[6],1.89 µM (inactive)
same,GI50,[7],1.75 µM (inactive)
same,GI50,[8],2.1 µM (inactive)
same,GI50,[9],18.7 µM (inactive)
same,GI50,[10],7 µM (inactive)
same,GI50,[11],18.6 µM (inactive)
same,GI50,[12],7.08 µM (inactive)
same,GI50,[13],3.21 µM
same,GI50,[14],1.97 µM (inactive)
same,GI50,[15],19 µM (inactive)
same,GI50,[16],2.39 µM (inactive)
same,GI50,[17],21.3 µM (inactive)
same,GI50,[18],30.2 µM (inactive)
same,GI50,[19],15.8 µM (inactive)
same,GI50,[20],1.95 µM (inactive)
same,GI50,[21],20.6 µM (inactive)
same,GI50,[22],2.34 µM (inactive)
same,GI50,[23],6.9 µM (inactive)
same,GI50,[24],9.12 µM (inactive)
same,GI50,[25],17.1 µM (inactive)
same,GI50,[26],19.4 µM (inactive)
same,GI50,[27],8.47 µM (inactive)
same,GI50,[28],1.81 µM (inactive)
same,GI50,[29],4.52 µM (inactive)
same,GI50,[30],19.1 µM (inactive)
same,GI50,[31],20.9 µM (inactive)
same,GI50,[32],20.7 µM (inactive)
same,GI50,[33],0.665 µM (active)
same,GI50,[34],14.9 µM (inactive)
same,GI50,[35],8.22 µM (inactive)
same,GI50,[36],19.8 µM (inactive)
same,GI50,[37],20.1 µM (inactive)
same,GI50,[38],17.7 µM (inactive)
same,GI50,[39],18.1 µM (inactive)
same,GI50,[40],1.73 µM (inactive)
same,GI50,[41],16.7 µM (inactive)
same,GI50,[42],25.2 µM (inactive)
same,GI50,[43],17.2 µM (inactive)
same,GI50,[44],12.4 µM (inactive)
same,GI50,[45],20.1 µM (inactive)
same,GI50,[46],17.7 µM (inactive)
same,GI50,[47],7.38 µM (inactive)
same,GI50,[48],20.2 µM (inactive)
same,GI50,[49],7.05 µM (inactive)
same,GI50,[50],22.5 µM (inactive)
same,GI50,[51],19.7 µM (inactive)
same,GI50,[52],2.52 µM (inactive)
same,GI50,[53],4.32 µM (inactive)
same,GI50,[54],11.6 µM (inactive)
same,GI50,[55],26.4 µM (inactive)
same,GI50,[56],17.2 µM (inactive)
same,GI50,[57],17 µM (inactive)
same,GI50,[58],8.18 µM (inactive)

# From ChEMBL document CHEMBL1201862, “PubChem BioAssay data set” (2004)
